The text below walks through data of US10875876B2, “Cyclized sulfamoylarylamide derivatives and the use thereof as medicaments for the treatment of hepatitis B” (priority 2015, dated 2020).

One series deals with HBV. In words: anti HBV activity, HepG2.117 cell line, intracellular HBV DNA by realtime PCR. Type of series: cell-based. As to conditions: HepG2.117 cell line (Tet-off), 3 days of treatment, intracellular HBV DNA quantified by realtime PCR, read-out: HBV-AVE-HepG2.117 EC50. Summed up:
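Readout was intracellular HBV DNA by real-time PCR (HBV-specific primers and probe) after 3 days of compound exposure. Serial dilutions were tested in duplicate on HepG2.117 cells, a stable inducible HBV producer in which replication is switched on when doxycycline is absent.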

Series [1] can be described thus: Cytotoxicity in HepG2 cells, Resazurin assay. As to conditions: human, HepG2 cells, TOX-HepG2-4 d CC50 (μM), HepG2 cells incubated for 4 days, viability by Resazurin assay. On the technique in general: Alamar Blue is a resazurin reagent that responds to reducing activity.
The mark [2] stands for this setting: Hepatitis B virus, HepG2.117, 72 h.

Like-named read-outs stand apart in the source and are kept apart here.

`CC1CCc2c(cn(C)c2C(=O)Nc2ccc(F)c(F)c2)S(=O)(=O)N1` (centres unmarked) gave a melting point of 229.8 °C.

`Cn1cc2c(c1C(=O)Nc1ccc(F)c(F)c1)OC[C@H](C(O)C1CC1)NS2(=O)=O` (some centres unmarked) registered a melting point of 244.8 °C.

With `Cn1cc2c(c1C(=O)Nc1ccc(F)c(C(F)F)c1)OC[C@H](C(O)C1CC1)NS2(=O)=O` (some centres unmarked), the melting point worked out at 240.7 °C.

The compound `Cn1cc2c(c1C(=O)Nc1ccc(F)c(C#N)c1)OC[C@H](C(O)C1CC1)NS2(=O)=O` (some centres unmarked) displayed a melting point of 233.9 °C.

In turn, `CCC(O)[C@H]1COc2c(cn(C)c2C(=O)Nc2ccc(F)c(C#N)c2)S(=O)(=O)N1` (some centres unmarked) came in with a melting point of 252.2 °C.

`CCC(O)[C@H]1COc2c(cn(C)c2C(=O)Nc2ccc(F)c(C(F)F)c2)S(=O)(=O)N1` (some centres unmarked) had a melting point of 224.5 °C.

Turning to `CCC(O)[C@H]1COc2c(cn(C)c2C(=O)Nc2ccc(F)c(F)c2)S(=O)(=O)N1` (some centres unmarked), the melting point came to 214.6 °C.

`CC(NCC(F)(F)F)C1CCc2c(cn(C)c2C(=O)Nc2cc(F)c(F)c(F)c2)S(=O)(=O)N1` (centres unmarked) came in with a melting point of 216.2 °C.

`CC1C=Cc2c(csc2C(=O)Nc2ccc(F)c(F)c2)S(=O)(=O)N1` (centres unmarked) registered a melting point of 220.8 °C.

`Cc1sc2c(c1C(=O)Nc1ccc(F)c(F)c1)OCC(C)NS2(=O)=O` (centres unmarked): the melting point stood at 221.5 °C.

With `CC(C)C(O)C1COc2c(cn(C)c2C(=O)Nc2ccc(F)c(F)c2)S(=O)(=O)N1` (racemic), the melting point amounted to 247.3 °C.

Turning to `CC(C)C(O)C1COc2c(cn(C)c2C(=O)Nc2ccc(F)c(C#N)c2)S(=O)(=O)N1` (racemic), the melting point was 213.7 °C.

For the compound `Cc1cccc(CC2(C)COc3c(cn(C)c3C(=O)Nc3ccc(F)c(F)c3)S(=O)(=O)N2)n1` (racemic) [Compound 172, N-(3,4-difluorophenyl)-3,7-dimethyl-3-[(6-methyl-2-pyridyl)methyl]-1,1-dioxo-2,4-dihydropyrrolo[3,4-b][1,4,5]oxathiazepine-6-carboxamide], the melting point was determined as 206 °C. For the same compound, the EC50 with HBV (setting [2]) turned out to be 74 nM. This compound also showed a CC50 at 4 days in series [1] above 25 µM.

Consider `Cc1cccc(C2(C)COc3c(cn(C)c3C(=O)Nc3ccc(F)c(C(F)F)c3)S(=O)(=O)N2)n1` (racemic) [Compound 177, N-[3-(difluoromethyl)-4-fluoro-phenyl]-3,7-dimethyl-3-(6-methyl-2-pyridyl)-1,1-dioxo-2,4-dihydropyrrolo[3,4-b][1,4,5]oxathiazepine-6-carboxamide], for which the melting point worked out at 210.2 °C. The EC50 with HBV (setting [2]) worked out at 8 nM. The same compound showed a CC50 at 4 days in series [1] above 25 µM.

With `Cn1cc2c(c1C(=O)Nc1ccc(F)c(F)c1)OCC(C)(Cc1cccnc1)NS2(=O)=O` (racemic) [Compound 199, N-(3,4-difluorophenyl)-3,7-dimethyl-1,1-dioxo-3-(3-pyridylmethyl)-2,4-dihydropyrrolo[3,4-b][1,4,5]oxathiazepine-6-carboxamide], the melting point was found to be 268.3 °C. Moreover, in the series on HBV (setting [2]), the concentration for a half-maximal effect (EC50) worked out at 15 nM. Moreover, the half-maximal cytotoxic concentration (CC50) at 4 days in series [1] is above 25 µM.

For the compound `Cn1cc2c(c1C(=O)Nc1ccc(F)c(F)c1)OCC(C)(c1cnccn1)NS2(=O)=O` (single isomer, unassigned) [Compound 145a, N-(3,4-difluorophenyl)-3,7-dimethyl-1,1-dioxo-3-pyrazin-2-yl-2,4-dihydropyrrolo[3,4-b][1,4,5]oxathiazepine-6-carboxamide], the melting point was found to be 199.4 °C. Also, the 50% effective concentration (EC50) with HBV turned out to be 14 nM. Also, the 50% cytotoxic concentration (CC50) at 4 days in series [1] was above 25 µM.

In the case of `Cn1cc2c(c1C(=O)Nc1ccc(F)c(F)c1)OCC(C)(c1ncccn1)NS2(=O)=O` (single isomer, unassigned) [Compound 153a, N-(3,4-difluorophenyl)-3,7-dimethyl-1,1-dioxo-3-pyrimidin-2-yl-2,4-dihydropyrrolo[3,4-b][1,4,5]oxathiazepine-6-carboxamide], the melting point worked out at 228.3 °C. The EC50 with HBV was above 125 nM. This compound gave a half-maximal cytotoxic concentration (CC50) at 4 days in series [1] above 25 µM.

Consider `Cn1cc2c(c1C(=O)Nc1ccc(F)c(F)c1)OCC(C)(c1ncco1)NS2(=O)=O` (single isomer, unassigned) [Compound 160a, N-(3,4-difluorophenyl)-3,7-dimethyl-3-oxazol-2-yl-1,1-dioxo-2,4-dihydropyrrolo[3,4-b][1,4,5]oxathiazepine-6-carboxamide], for which the melting point amounted to 239.5 °C. Also, in the series on HBV, the half-maximal effective concentration (EC50) came out at 77 nM. Further, the CC50 at 4 days in series [1] is above 25 µM.

`Cc1cccc(C2(C)COc3c(cn(C)c3C(=O)Nc3ccc(F)c(F)c3)S(=O)(=O)N2)n1` (single isomer, unassigned) [Compound 168a, N-(3,4-difluorophenyl)-3,7-dimethyl-3-(6-methyl-2-pyridyl)-1,1-dioxo-2,4-dihydropyrrolo[3,4-b][1,4,5]oxathiazepine-6-carboxamide] had a melting point of 221.9 °C. Also, in the series with HBV, the half-maximal effective concentration (EC50) is above 125 nM. The CC50 at 4 days in series [1] was above 25 µM.

Regarding `Cn1ccc(C2(C)COc3c(cn(C)c3C(=O)Nc3ccc(F)c(F)c3)S(=O)(=O)N2)n1` (single isomer, unassigned) [Compound 192a, N-(3,4-difluorophenyl)-3,7-dimethyl-3-(1-methylpyrazol-3-yl)-1,1-dioxo-2,4-dihydropyrrolo[3,4-b][1,4,5]oxathiazepine-6-carboxamide], the melting point is 208.7 °C. Also, in the series with HBV (setting [2]), the concentration for a half-maximal effect (EC50) is 36 nM. In addition, the CC50 at 4 days in series [1] is above 25 µM.

As for `CCC(O)[C@@H]1COc2c(cn(C)c2C(=O)Nc2ccc(F)c(F)c2)S(=O)(=O)N1` (stereo in doubt), the melting point was 212.6 °C.

Regarding `CCC(O)[C@@H]1COc2c(cn(C)c2C(=O)Nc2ccc(F)c(C(F)F)c2)S(=O)(=O)N1` (stereo in doubt), the melting point is 224.6 °C.

`Cc1cc(NC(=O)c2c3c(cn2C)S(=O)(=O)N[C@@H](C(O)C2CC2)CO3)ccc1F` (stereo in doubt) came in with a melting point of 234.7 °C.

`Cn1cc2c(c1C(=O)Nc1ccc(F)c(Cl)c1)OC[C@H](C(O)C1CC1)NS2(=O)=O` (stereo in doubt) registered a melting point of 215.8 °C.

`CC(N)[C@H]1CCc2c(cn(C)c2C(=O)Nc2cc(F)c(F)c(F)c2)S(=O)(=O)N1` (stereo in doubt) returned a melting point of 281.2 °C.

`CCC(O)[C@@H]1COc2c(cn(C)c2C(=O)Nc2ccc(F)c(C#N)c2)S(=O)(=O)N1` (stereo in doubt) [Compound 163, N-(3-cyano-4-fluoro-phenyl)-3-(1-hydroxypropyl)-7-methyl-1,1-dioxo-3,4-dihydro-2H-pyrrolo[3,4-b][1,4,5]oxathiazepine-6-carboxamide] showed a melting point of 247 °C. Moreover, in the series on HBV (setting [2]), the EC50 is above 125 nM. In series [1], this compound had a cytotoxic concentration (CC50) at 4 days above 25 µM.

Consider `Cn1cc2c(c1C(=O)Nc1ccc(F)c(F)c1)C=CC(C(F)(F)F)NS2(=O)=O` (centres unmarked) [Compound 8, N-(3,4-difluorophenyl)-7-methyl-1,1-dioxo-3-(trifluoromethyl)-2,3-dihydropyrrolo[3,4-f]thiazepine-6-carboxamide], for which the melting point turned out to be 245.6 °C. Moreover, in the series on HBV (setting [2]), the EC50 was 47 nM. The CC50 at 4 days in series [1] was above 25 µM.

In turn, `Cn1cc2c(c1C(=O)Nc1ccc(F)c(F)c1)C=CCNS2(=O)=O` [Compound 9, N-(3,4-difluorophenyl)-7-methyl-1,1-dioxo-2,3-dihydropyrrolo[3,4-f]-thiazepine-6-carboxamide] displayed a melting point of 221.9 °C. The EC50 in the series on HBV (setting [2]) is 36 nM. The 50% cytotoxic concentration (CC50) at 4 days in series [1] was above 25 µM.

On to `Cn1cc2c(c1C(=O)Nc1ccc(F)c(F)c1)CC(O)CNS2(=O)=O` (centres unmarked) [Compound 68, N-(3,4-difluorophenyl)-4-hydroxy-7-methyl-1,1-dioxo-2,3,4,5-tetrahydropyrrolo[3,4-f]thiazepine-6-carboxamide], for which the melting point was found to be 229 °C. Also, in the series on HBV (setting [2]), the concentration for a half-maximal effect (EC50) was 230 nM. Further, in series [1], the half-maximal cytotoxic concentration (CC50) at 4 days was above 25 µM.

For the compound `Cn1cc2c(c1C(=O)Nc1ccc(F)c(F)c1)OC[C@@H](C(C)(C)O)NS2(=O)=O` [Compound 94, (3S)—N-(3,4-difluorophenyl)-3-(1-hydroxy-1-methyl-ethyl)-7-methyl-1,1-dioxo-3,4-dihydro-2H-pyrrolo[3,4-b][1,4,5]oxathiazepine-6-carboxamide], the melting point stood at 234.1 °C. Further, the half-maximal effective concentration (EC50) in the series on HBV (setting [2]) stood at 80 nM. In series [1], this compound displayed a CC50 at 4 days above 25 µM.

As to `CC(C)[C@H]1Oc2c(cn(C)c2C(=O)Nc2ccc(F)c(F)c2)S(=O)(=O)N[C@@H]1CO` [compound 240], in the series on HBV (setting [2]), the EC50 was above 250 nM. This compound showed a 50% cytotoxic concentration (CC50) at 4 days in series [1] above 25 µM.

`CC(C)[C@@H]1Oc2c(cn(C)c2C(=O)Nc2ccc(F)c(F)c2)S(=O)(=O)N[C@H]1CO` [compound 241]: the EC50 in the series on HBV (setting [2]) is above 250 nM. Moreover, in series [1], the CC50 at 4 days is above 25 µM.

`Cn1cc2c(c1C(=O)Nc1ccc(F)c(F)c1)OCC(C(=O)O)NS2(=O)=O` (centres unmarked) [compound 242]: the EC50 in the series on HBV (setting [2]) was above 130 nM. Also, in series [1], the half-maximal cytotoxic concentration (CC50) at 4 days was above 25 µM.

Regarding `COC(=O)C1COc2c(cn(C)c2C(=O)Nc2ccc(F)c(F)c2)S(=O)(=O)N1` (centres unmarked) [compound 243], in the series with HBV (setting [2]), the concentration giving a half-maximal response (EC50) is above 500 nM. The compound also yielded a CC50 at 4 days in series [1] above 25 µM.

Turning to `CC1CCc2c(nn(C)c2C(=O)Nc2ccc(F)c(F)c2)S(=O)(=O)N1` (centres unmarked) [compound 246], the EC50 in the series with HBV (setting [2]) is above 130 nM. For the same compound, the CC50 at 4 days in series [1] is above 25 µM.

`Cn1cc2c(c1C(=O)Nc1ccnc(C(F)F)c1)C=CC(C(F)F)NS2(=O)=O` (centres unmarked) [compound 247]: the EC50 with HBV (setting [2]) is above 130 nM. For the same compound, in series [1], the cytotoxic concentration (CC50) at 4 days is above 25 µM.

Broadly, the melting point is the temperature of the solid-liquid transition. One may read the EC50 as the concentration needed to bring the measured effect to its halfway point. As usually defined, the CC50 is the concentration at which the toxic effect on the cells reaches its halfway point. Lower therefore signals harm at low concentration.
